Assay results from patent US20240228488A1 (TAKEDA PHARMACEUTICAL COMPANY LIMITED, priority 2021, published 2024).

Columns and labels:
plasma kallikrein = molecular target: T1, plasma kallikrein (Homo sapiens, UniProt P03952); assay: Neat human plasma assay, FXIIa contact pathway-activated, PFR-AMC substrate; assay type: biochemical; details: citrated human plasma 78% final, 10 nM human FXIIa, 100 μM PFR-AMC; read-out: Human Plasma Assay: IC90
T1 construct: from tissue
Summary of the method: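 Compound inhibition of plasma kallikrein measured as PFR-AMC (100 μM) cleavage rate over 5 min at room temperature in 78% citrated human plasma activated with 10 nM FXIIa (Tris pH 7.5 buffer). IC50/IC90 from 4-parameter fit of rate versus inhibitor concentration.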

[1] = molecular target: human activated kallikrein enzyme (Homo sapiens, UniProt P03952); assay: Plasma kallikrein inhibition, fluorogenic PFR-AMC substrate, 500 pM activated kallikrein format; assay type: biochemical; details: 500 pM activated kallikrein, 300 uM PFR-AMC, 30 min preincubation, 10 min reaction; read-out: Primary Dose Response Assay: Average EC50
Summary of the method: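 Fluorogenic readout (ex 380 / em 460 nm) after 10 min room-temperature reaction with 300 uM Pro-Phe-Arg-AMC substrate, following 30 min preincubation of inhibitors with 500 pM enzyme. Buffer: Tris pH 7.5, EDTA, NaCl, PEG-400, Triton X-100. Values given as EC50 ranges.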

Sequence of human activated kallikrein enzyme (P03952 391-638 limits assumed): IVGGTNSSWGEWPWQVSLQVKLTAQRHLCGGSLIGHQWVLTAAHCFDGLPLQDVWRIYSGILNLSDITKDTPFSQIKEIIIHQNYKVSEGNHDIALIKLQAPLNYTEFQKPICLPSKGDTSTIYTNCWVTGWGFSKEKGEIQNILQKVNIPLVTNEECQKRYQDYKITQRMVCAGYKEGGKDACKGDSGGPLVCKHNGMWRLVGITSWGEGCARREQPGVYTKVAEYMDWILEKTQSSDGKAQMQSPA
Sequence of human activated kallikrein enzyme (P03952 20-390 partner limits assumed): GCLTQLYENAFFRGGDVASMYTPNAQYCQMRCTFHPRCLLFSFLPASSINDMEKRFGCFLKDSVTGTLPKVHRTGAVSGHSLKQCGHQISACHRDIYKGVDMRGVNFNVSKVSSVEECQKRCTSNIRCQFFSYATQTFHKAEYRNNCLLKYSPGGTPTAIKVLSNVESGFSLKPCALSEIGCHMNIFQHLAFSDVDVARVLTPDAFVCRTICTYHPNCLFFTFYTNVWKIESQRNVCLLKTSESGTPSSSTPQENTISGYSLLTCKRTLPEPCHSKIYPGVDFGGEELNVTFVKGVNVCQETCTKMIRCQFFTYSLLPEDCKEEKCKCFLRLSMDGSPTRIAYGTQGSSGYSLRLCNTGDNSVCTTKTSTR
T1 sequence (P03952 391-638 limits assumed): as the sequence (P03952 391-638 limits assumed) above
T1 sequence (P03952 20-390 partner limits assumed): as the sequence (P03952 20-390 partner limits assumed) above

IC90 (plasma kallikrein) | EC50 [1] | SMILES
0.4 to 1.5 µM | < 0.001 µM | Cc1ccnc([C@H]2C[C@@H]2C(=O)Nc2cc(NCc3cn4cc(C5CC5)cc(N5CC(=O)N(C)C5=O)c4n3)nc(CF)n2)n1 (racemic) [Example 353, rac-(1S*,2S*)—N-(6-(((6-cyclopropyl-8-(3-methyl-2,4-dioxoimidazolidin-1-yl)imidazo[1,2-a]pyridin-2-yl)methyl)amino)-2-(fluoromethyl)pyrimidin-4-yl)-2-(4-methylpyrimidin-2-yl)cyclopropane-1-carboxamide]
1.5 to 10 µM | < 0.001 µM | Cc1ccnc([C@H]2C[C@@H]2C(=O)Nc2cc(OC(C)c3cn4cc(C5CC5)cc(N5CC(=O)N(C)C5=O)c4n3)nc(C)n2)n1 (stereo partly drawn) [Example 552, (1S,2S)-N-(6-(1-(6-cyclopropyl-8-(3-methyl-2,4-dioxoimidazolidin-1-yl)imidazo[1,2-a]pyridin-2-yl)ethoxy)-2-methylpyrimidin-4-yl)-2-(4-methylpyrimidin-2-yl)cyclopropane-1-carboxamide]
1.5 to 10 µM | 0.001 to 0.01 µM | O=C(Nc1cc(NCc2cn3cc(C4CC4)cc(N4CCS(=O)(=O)CC4)c3n2)ncn1)[C@H]1C[C@@H]1c1cccc(Cl)c1 [Example I-10, (1S,2S)-2-(3-chlorophenyl)-N-(6-(((6-cyclopropyl-8-(1,1-dioxidothiomorpholino)imidazo[1,2-a]pyridin-2-yl)methyl)amino)pyrimidin-4-yl)cyclopropane-1-carboxamide]
1.5 to 10 µM | < 0.001 µM | Cc1ccnc([C@H]2C[C@@H]2C(=O)Nc2cc(N3C[C@@H](O)C[C@@H]3c3cn4cc(C5CC5)ccc4n3)ncn2)n1 (relative stereo) [Example 476, rac-(1S*,2S*)-N-(6-((2R,4S)-2-(6-cyclopropylimidazo[1,2-a]pyridin-2-yl)-4-hydroxypyrrolidin-1-yl)pyrimidin-4-yl)-2-(4-methylpyrimidin-2-yl)cyclopropane-1-carboxamide]
< 0.4 µM | < 0.001 µM | COc1nc(NC(=O)[C@H]2C[C@@H]2c2nccc(C)n2)cc(N(C)Cc2cn3cc(C4CC4)cc(N4CC(=O)N(C)C4=O)c3n2)n1 [Example 406, (1S,2S)-N-(6-(((6-cyclopropyl-8-(3-methyl-2,4-dioxoimidazolidin-1-yl)imidazo[1,2-a]pyridin-2-yl)methyl)(methyl)amino)-2-methoxypyrimidin-4-yl)-2-(4-methylpyrimidin-2-yl)cyclopropane-1-carboxamide]
< 0.4 µM | < 0.001 µM | Cc1ccnc([C@H]2C[C@@H]2C(=O)Nc2cc(OCc3cn4cc(C5CC5)cc(N5CC(=O)N(C)C5=O)c4n3)c(C)nn2)n1 [Example 560, (1S,2S)-N-(5-((6-cyclopropyl-8-(3-methyl-2,4-dioxoimidazolidin-1-yl)imidazo[1,2-a]pyridin-2-yl)methoxy)-6-methylpyridazin-3-yl)-2-(4-methylpyrimidin-2-yl)cyclopropane-1-carboxamide]
< 0.4 µM | < 0.001 µM | Cc1ccnc([C@H]2C[C@@H]2C(=O)Nc2cc(N[C@H](C)c3cn4cc(C(C)C)cc(N5CC(=O)N(C)C5=O)c4n3)ncn2)n1 [Example I-679, (1S,2S)—N-(6-(((R)-1-(6-isopropyl-8-(3-methyl-2,4-dioxoimidazolidin-1-yl)imidazo[1,2-a]pyridin-2-yl)ethyl)amino)pyrimidin-4-yl)-2-(4-methylpyrimidin-2-yl)cyclopropane-1-carboxamide]
< 0.4 µM | < 0.001 µM | COCCN1CCN(c2cc(C3CC3)cn3cc(CNc4ccnc(NC(=O)[C@H]5C[C@@H]5c5cccc(Cl)c5)c4)nc23)CC1 [Example 599, (1S,2S)-2-(3-chlorophenyl)-N-(4-(((6-cyclopropyl-8-(4-(2-methoxyethyl)piperazin-1-yl)imidazo[1,2-a]pyridin-2-yl)methyl)amino)pyridin-2-yl)cyclopropane-1-carboxamide]
